In PubChem BioAssay (NCI):
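Grown in 96-well plates, cells were treated for 48 hours with each compound at five concentrations. Insufficient inhibition: endpoint recorded as highest concentration tested. Abbreviation: GI50, concentration required for 50% inhibition of growth. At the TGI there is no net growth.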 Where a SMILES comes first, the peptide text is derived from it. [ ]: non-standard residue; d: D form. pGlu = O=C1CC[CH](C(=O)O)N1

System: MDA-MB-468 breast
Experiment: growth of human tumour cells (NCI), 48 h

| Compound | GI50 | TGI |
| --- | --- | --- |
| CCN(Cc1ccc(Cl)cc1)c1ccc(CO)c(Cl)c1 | 20 nM | 62.6 nM |
| CCCCCCCCNc1cc2c3c(c1)CCCN3CCC2 | 1540 nM | 5310 nM |
| O=C(Oc1cccc(F)c1OC(=O)c1cccc(O)c1)c1cccc(O)c1 | 18200 nM | 55200 nM |
| COc1ccc2sc(NC(=O)CCCCCCNC(=O)C(O)(O)C(F)(F)F)nc2c1 | 665 nM | 1810 nM |
| CCNC(=O)C1CCCN1C(=O)C(CCCN=C(N)N)NC(=O)C(CC(C)C)NC(=O)C(CC(C)C)NC(=O)C(Cc1ccc(O)cc1)NC(=O)C(CO)NC(=O)C(Cc1c[nH]c2ccccc12)NC(=O)C(Cc1cnc[nH]1)NC(=O)C1CCC(=O)N1 (stereo not drawn) ([pGlu]HWSYLLRP-NHEt; configuration not given here) | > 100000 nM | > 100000 nM |
| COc1ccc(-c2nn(-c3cccc(Cl)c3)cc2-c2cc(-c3cccs3)[nH]c(=S)n2)cc1 | 2570 nM | 9910 nM |
| COc1cc(/C=C\c2cc(OC)c(OC)c(OC)c2)cc(NC(=O)/C=C/c2cc(OC)c(OC)c(OC)c2)c1OC | 1990 nM | > 100000 nM |
| C=C1C(=O)O[C@H]2[C@H]1CC/C(CNC(=O)/C=C/c1cc(OC)c(OC)c(OC)c1)=C\CC[C@@]1(C)O[C@@H]21 | 220 nM | 1060 nM |
| CCOC(=O)c1c(C)nc2c(c1N)CC(=O)N2Cc1ccc(OC)cc1 | 27300 nM | > 100000 nM |
| O=C(c1ccccc1)c1ccccc1-c1ccccc1 | 768 nM | 3700 nM |
| C/C=C(\C)C(=O)NC1=CC[C@@]2(C)C(=CCC3C2CC[C@@]2(C)C3CC[C@@H]2C(C)N(C)C)C1=O (stereo partly drawn) | 2000 nM | 9560 nM |
| IP(CCCSc1n(Cc2ccc3ccccc3c2)c(-c2ccccc2)c(-c2ccccc2)[n+]1Cc1ccc2ccccc2c1)(c1ccccc1)(c1ccccc1)c1ccccc1 | 2250 nM | 5970 nM |
| Fc1ccc(C2CC(c3cccc(Nc4ccncc4)c3)=NN2c2ccc(Cl)cc2)cc1 (stereo not drawn) | 1420 nM | 2930 nM |
| C=CCN=c1sc2c(n1NC(=O)c1cc3ccc1CCc1ccc(cc1)CC3)C(=O)c1ccccc1C2=O | 2280 nM | 5720 nM |
| O=c1[nH]nnc2c1ncn2C1OC(CO)C(O)C1O (stereo not drawn) | 3360 nM | > 100000 nM |
| O=C(CCCCCCNC(=O)c1cnc(N(c2ccccc2)c2ccccc2)nc1)NO | 1220 nM | 10200 nM |
| C[C@]12CC[C@@H]3c4ccc(OC(=O)N(CCCl)CCCl)cc4CC[C@H]3[C@@H]1CC[C@@H]2O | 1690 nM | 4210 nM |

| Compound | GI50 | TGI |
| --- | --- | --- |
| CCOC(=O)Nc1ccc2c(c1)/C(=N\NC(N)=S)c1ccccc1-2 | 3460 nM | 25000 nM |
| COc1cccc(N2CCN(CC(=O)N3CCN(c4nnc(-c5ccc(Cl)cc5)c(-c5ccc(Cl)cc5)n4)CC3)CC2)c1 | 22500 nM | > 100000 nM |
| C[C@H](NC(=O)[C@@H](C)N)[C@H](Oc1ccc2c(cnn2-c2ccc(F)cc2)c1)c1ccc2c(c1)OCCO2 | 2120 nM | 4050 nM |
| COc1ccc(C(=S)N2CCN(c3cccc(C)c3)CC2)cc1OC | 2650 nM | > 100000 nM |
| ClCc1cccc2c(CCl)cccc12 | 1120 nM | 3050 nM |
| CCN1C(=O)N(CC)C2C1NN=c1s/c(=C\c3cccc(F)c3)c(=O)n12 (stereo not drawn) | 183 nM | > 100000 nM |
| N#Cc1ccc(OCc2nc(N)nc(N)c2-c2ccc(Cl)c(Cl)c2)cc1 | 1530 nM | 53900 nM |
| Oc1c(-c2nnc(-c3ccccc3Cl)o2)sc2nnc(-c3ccccc3)c(-c3ccccc3)c12 | 5110 nM | 27800 nM |
| COc1ncnc2c(-c3ccccc3)cn(COCc3ccccc3)c12 | 1740 nM | 6820 nM |
| C=C1C(=O)O[C@H]2[C@H]1CC/C(COC(=O)CSCSCC(=O)OC/C1=C/CC[C@@]3(C)O[C@H]3[C@H]3OC(=O)C(=C)[C@@H]3CC1)=C\CC[C@@]1(C)O[C@@H]21 | 1070 nM | 2700 nM |
| O=C(Nc1cccc(-c2nc(-c3ccc(NC(=O)c4cccnc4)cc3Cl)no2)c1)Nc1ccc(NC(=O)C2CC2)c(C(F)(F)F)c1 | 193 nM | 691 nM |
| CCN(Cc1cc(Nc2nc(C)cn3c(-c4cn[nH]c4)cnc23)sn1)C(C)(C)CO | < 12.3 nM | 233 nM |
| O=c1[nH]c(=O)c2cn[nH]c2[nH]1 | > 100000 nM | > 100000 nM |
| Clc1nc(Cl)c2ncn(CC3(Cn4cnc5c(Cl)nc(Cl)nc54)COC3)c2n1 | 192 nM | 408 nM |
| O=C(Nc1cc(Cl)cc(Cl)c1)Nc1nc2ccc([N+](=O)[O-])cc2s1 | 1000 nM | 4220 nM |
| CN(CCO)CC[C@H](CSc1ccccc1)Nc1ccc(S(=O)(=O)NC(=O)c2ccc(N3CCC([C@@H](O)c4ccccc4-c4ccc(Cl)cc4)CC3)cc2)cc1S(=O)(=O)C(F)(F)F | 1870 nM | 5190 nM |
| Cc1cccc(/C=C/c2c(C(=O)/C=C/c3ccccc3)c(C)nc3ccccc23)c1 | 1900 nM | 3790 nM |
